Patent US20040156869A1, “2-substituted quinazolin-4-ylamine analogues” (Neurogen Corporation, priority 2002, published 2004)

These compounds were tested against human capsaicin receptor (VR1) (Homo sapiens, UniProt Q8NER1) (assay: Capsaicin receptor binding assay ([3H]RTX competition, VR1-transfected HEK293 membranes)).
Chain of human capsaicin receptor (VR1) (Q8NER1 whole entry): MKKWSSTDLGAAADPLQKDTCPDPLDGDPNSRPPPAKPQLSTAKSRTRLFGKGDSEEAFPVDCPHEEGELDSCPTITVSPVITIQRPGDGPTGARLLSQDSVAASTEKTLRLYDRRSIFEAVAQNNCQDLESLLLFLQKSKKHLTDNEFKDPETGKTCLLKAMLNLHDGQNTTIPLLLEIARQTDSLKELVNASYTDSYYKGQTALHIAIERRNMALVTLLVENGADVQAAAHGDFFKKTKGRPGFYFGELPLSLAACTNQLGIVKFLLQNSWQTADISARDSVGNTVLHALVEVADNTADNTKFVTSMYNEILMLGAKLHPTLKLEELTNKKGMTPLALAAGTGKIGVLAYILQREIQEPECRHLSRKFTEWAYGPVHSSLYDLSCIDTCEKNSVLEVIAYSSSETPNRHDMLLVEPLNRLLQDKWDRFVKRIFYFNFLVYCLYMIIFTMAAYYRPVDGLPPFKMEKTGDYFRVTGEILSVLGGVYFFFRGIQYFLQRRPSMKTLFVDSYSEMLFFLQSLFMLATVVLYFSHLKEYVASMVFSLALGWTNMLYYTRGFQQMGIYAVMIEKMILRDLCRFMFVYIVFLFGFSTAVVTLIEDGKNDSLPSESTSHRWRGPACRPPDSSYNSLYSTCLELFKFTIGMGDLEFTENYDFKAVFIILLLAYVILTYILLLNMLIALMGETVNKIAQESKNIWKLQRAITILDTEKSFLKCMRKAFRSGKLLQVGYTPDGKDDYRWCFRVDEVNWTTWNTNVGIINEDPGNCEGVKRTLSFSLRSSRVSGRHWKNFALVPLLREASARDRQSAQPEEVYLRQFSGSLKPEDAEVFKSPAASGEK

**Q.** How did the Ki turn out when `CC(C)(CO)c1nc(Nc2ccc(C(F)(F)F)cc2)c2ccc(-c3ncccc3C(F)(F)F)cc2n1` [Compound 218, 2-Methyl-2-[4-(4-trifluoromethyl-phenylamino)-7-(3-trifluoromethyl-pyridin-2-yl)-quinazolin-2-yl]-propan-1-ol] was run?
**A.** < 1000 nM

**Q.** For `CC(C)(CO)NCc1nc(Nc2ccc(C(F)(F)F)cc2)c2ccc(-c3ncccc3C(F)(F)F)cc2n1` [Compound 704, 2-Methyl-2-{[4-(4-trifluoromethyl-phenylamino)-7-(3-trifluoromethyl-pyridin-2-yl)-quinazolin-2-ylmethyl]-amino}-propan-1-ol], which Ki is on record?
**A.** < 1000 nM

**Q.** `CS(=O)(=O)c1ccc(Nc2nc(COCc3ccccc3)nc3cc(-c4ncccc4C(F)(F)F)ccc23)cc1` [Compound 40, [2-Benzyloxymethyl-7-(3-trifluoromethyl-pyridin-2-yl)-quinazolin-4-yl]-(4-methanesulfonyl-phenyl)-amine] was tested. Which Ki did it give?
**A.** < 1000 nM

**Q.** Which Ki does the source give for `C=CCN(C)C(=O)c1nc(Nc2ccc(C(F)(F)F)cc2)c2ccc(-c3ncccc3C(F)(F)F)nc2n1` [Compound 464, 4-(4-Trifluoromethyl-phenylamino)-7-(3-trifluoromethyl-pyridin-2-yl)-pyrido[2,3-d]pyrimidine-2-carboxyiic acid allyl-methyl-amide] here?
**A.** < 1000 nM

**Q.** How did the Ki turn out when `CCOCc1nc(Nc2ccc(C(F)(F)F)cc2)c2ccc(-c3ncccc3C(F)(F)F)nc2n1` [Compound 223, [2-Ethoxymethyl-7-(3-trifluoromethyl-pyridin-2-yl)-pyrido[2,3-d]pyrimidin-4-yl]-(4-trifluoromethyl-phenyl)-amine] was run?
**A.** < 1000 nM

**Q.** How did the Ki turn out when `Cc1cccnc1-c1ccc2c(Nc3ccc(C(C)(C)C)nc3)nc(COCC(C)C)nc2n1` [Compound 193, (6-tert-Butyl-pyridin-3-yl)-[2-isobutoxymethyl-7-(3-methyl-pyridin-2-yl)-pyrido[2,3-d]pyrimidin-4-yl]-amine] was run?
**A.** < 1000 nM

**Q.** Which Ki does the source give for `COCc1nc(Nc2ccc(C(C)(C)C)nc2)c2ccc(-c3ncccc3Cl)cc2n1` [Compound 68, (6-tert-Butyl-pyridin-3-yl)-[7-(3-chloro-pyridin-2-yl)-2-methoxymethyl-quinazolin-4-yl]-amine] here?
**A.** < 1000 nM

**Q.** How did the Ki turn out when `CCOC(=O)c1nc(Nc2ccc(C(F)(F)F)cc2)c2ccc(-c3ncccc3C)nc2n1` [Compound 172, 7-(3-Methyl-pyridin-2-yl)-4-(4-trifluoromethyl-phenylamino)-pyrido[2,3-d]pyrimidine-2-carboxylic acid ethyl ester] was run?
**A.** < 1000 nM

**Q.** Which Ki does the source give for `Cc1cccnc1-c1ccc2c(Nc3ccc(C(F)(F)F)cc3)nc(COC(C)C)nc2c1` [Compound 91, [2-Isopropoxymethyl-7-(3-methyl-pyridin-2-yl)-quinazolin-4-yl]-(4-trifluoromethyl-phenyl)-amine] here?
**A.** < 1000 nM

**Q.** With `Cc1cccnc1-c1ccc2c(Nc3ccc(C(C)C)cc3)nc(CN3CCCC(C)(C)C3)nc2c1` [Compound 714, [2-(3,3-Dimethyl-piperidin-1-ylmethyl)-7-(3-methyl-pyridin-2-yl)-quinazolin-4-yl]-(4-isopropyl-phenyl)-amine] as the compound, how does the Ki read?
**A.** < 1000 nM

**Q.** For `CC(C)c1ccc(Nc2nc(CN3CCO[C@@H](C)C3)nc3cc(-c4ncccc4C(F)(F)F)ccc23)cc1` [Compound 687, (S)-(4-Isopropyl-phenyl)-[2-(2-methyl-morpholin-4-ylmethyl)-7-(3-trifluoromethyl-pyridin-2-yl)-quinazolin-4-yl]-amine], which Ki is on record?
**A.** < 1000 nM

**Q.** `C[C@@H]1CN(Cc2nc(Nc3ccc(C(C)(C)C)cc3)c3ccc(-c4ncccc4C(F)(F)F)nc3n2)C[C@H](C)O1` [Compound 757, (4-tert-Butyl-phenyl)-[2-(2,6-dimethyl-morpholin-4-ylmethyl)-7-(3-trifluoromethyl-pyridin-2-yl)-pyrido[2,3-d]pyrimidin-4-yl]-amine (cis)] was tested. Which Ki did it give?
**A.** < 1000 nM

**Q.** For `CC(C)COCc1nc(Nc2ccc(C(C)C(F)(F)F)cc2)c2ccc(-c3ncccc3C(F)(F)F)nc2n1` (centres unmarked) [Compound 232, [2-Isobutoxymethyl-7-(3-trifluoromethyl-pyridin-2-yl)-pyrido[2,3-d]pyrimidin-4-yl]-[4-(2,2,2-trifluoro-1-methyl-ethyl)-phenyl]-amine], which Ki is on record?
**A.** < 1000 nM

**Q.** How did the Ki turn out when `CC(C)(C)c1ccc(Nc2nc(CN3CCC[C@@H]3C(=O)O)nc3cc(-c4ncccc4C(F)(F)F)ccc23)cc1` [Compound 745, (R)-1-[4-(4-tert-Butyl-phenylamino)-7-(3-trifluoromethyl-pyridin-2-yl)-quinazolin-2-ylmethyl]-pyrrolidine-2-carboxylic acid] was run?
**A.** < 1000 nM

**Q.** With `CC(C)c1ccc(Nc2nc(COC3CCOCC3)nc3cc(-c4ncccc4Cl)ccc23)cc1` [Compound 103, [7-(3-Chloro-pyridin-2-yl)-2-(tetrahydro-pyran-4-yloxymethyl)-quinazolin-4-yl]-(4-isopropyl-phenyl)-amine] as the compound, how does the Ki read?
**A.** < 1000 nM

**Q.** For `CCCN(CCC)Cc1nc(Nc2ccc(C(F)(F)F)cc2)c2ncc(-c3ncccc3C(F)(F)F)cc2n1` [Compound 664, [2-Dipropylaminomethyl-7-(3-trifluoromethyl-pyridin-2-yl)-pyrido[3,2-d]pyrimidin-4-yl]-(4-trifluoromethyl-phenyl)-amine], which Ki is on record?
**A.** < 1000 nM

**Q.** For `O=S(=O)(c1ccc(Nc2nc(CO)nc3cc(-c4ncccc4C(F)(F)F)cnc23)cc1)N1CCCCC1` [Compound 202, [4-[4-(Piperidine-1-sulfonyl)-phenylamino]-7-(3-trifluoromethyl-pyridin-2-yl)-pyrido[3,2-d]pyrimidin-2-yl]-methanol], which Ki is on record?
**A.** < 1000 nM

**Q.** Which Ki does the source give for `O=CN1CCN(CCc2nc(Nc3ccc(C(F)(F)F)cc3)c3ccc(-c4ncccc4C(F)(F)F)cc3n2)CC1` [Compound 562, 4-{2-[4-(4-Trifluoromethyl-phenylamino)-7-(3-trifluoromethyl-pyridin-2-yl)-quinazolin-2-yl]-ethyl}-piperazine-1-carbaldehyde] here?
**A.** < 1000 nM

**Q.** `CC1CN(CCCc2nc(Nc3ccc(C(F)(F)F)nc3)c3ccc(-c4ncccc4C(F)(F)F)cc3n2)CC(C)O1` (centres unmarked) [Compound 544, [2-[3-(2,6-Dimethyl-morpholin-4-yl)-propyl]-7-(3-trifluoromethyl-pyridin-2-yl)-quinazolin-4-yl]-(6-trifluoromethyl-pyridin-3-yl)-amine] was tested. Which Ki did it give?
**A.** < 1000 nM

**Q.** For `CC(C)(C)c1ccc(Nc2nc(CN3CCCS3(=O)=O)nc3cc(-c4ncccc4C(F)(F)F)ccc23)cc1` [Compound 697, (4-tert-Butyl-phenyl)-[2-(1,1-dioxo-1λ^6-isothiazolidin-2-ylmethyl)-7-(3-trifluoromethyl-pyridin-2-yl)-quinazolin-4-yl]-amine], which Ki is on record?
**A.** < 1000 nM

**Q.** With `CC(C)COCc1nc(Nc2ccc(C(C)C(F)(F)F)cc2)c2ccc(-c3ncccc3Cl)nc2n1` (centres unmarked) [Compound 233, [7-(3-Chloro-pyridin-2-yl)-2-isobutoxymethyl-pyrido[2,3-d]pyrimidin-4-yl]-[4-(2,2,2-trifluoro-1-methyl-ethyl)-phenyl]-amine] as the compound, how does the Ki read?
**A.** < 1000 nM

**Q.** How did the Ki turn out when `O=S(=O)(c1ccc(Nc2nc(CO)nc3cc(-c4ncccc4C(F)(F)F)ccc23)cc1)N1CCCCC1` [Compound 186, [4-[4-(Piperidine-1-sulfonyl)-phenylamino]-7-(3-trifluoromethyl-pyridin-2-yl)-quinazolin-2-yl]-methanol] was run?
**A.** < 1000 nM

**Q.** For `CC(C)COCc1nc(Nc2ccc(C(C)(C)C)nc2)c2ccc(-c3ncccc3C(F)(F)F)nc2n1` [Compound 192, (6-tert-Butyl-pyridin-3-yl)-[2-isobutoxymethyl-7-(3-trifluoromethyl-pyridin-2-yl)-pyrido[2,3-d]pyrimidin-4-yl]-amine], which Ki is on record?
**A.** < 1000 nM
